Entries after “also recorded” stand apart in the source; their conditions may differ.

The target in experiment [1] is T1, recombinant Rv3378c protein (Mycobacterium tuberculosis, UniProt P9WJ61).
T1 construct: hexahistidine (His6) tag from pET-28b, thrombin-cleavable (N, cleaved yes); made in house; host or cells: E. coli BL21-CodonPlus, co-expressed with GroES/GroEL chaperones
T1 sequence (P9WJ61 1-296): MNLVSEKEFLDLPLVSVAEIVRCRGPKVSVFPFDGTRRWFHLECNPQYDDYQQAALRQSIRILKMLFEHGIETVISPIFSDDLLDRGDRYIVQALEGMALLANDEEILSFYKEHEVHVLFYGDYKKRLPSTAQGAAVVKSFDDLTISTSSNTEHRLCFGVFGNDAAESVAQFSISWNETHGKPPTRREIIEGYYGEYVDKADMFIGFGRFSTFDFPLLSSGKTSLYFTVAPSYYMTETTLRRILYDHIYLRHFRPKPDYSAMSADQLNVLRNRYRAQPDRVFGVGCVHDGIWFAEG
Kind of experiment: Rv3378c enzymatic assays (tuberculosinyl transferase, HPLC-MS detection of 1-TbAd). To be noted: pH 7.4. The class given is biochemical, M. tuberculosis.

The next experiment has as its system phagosomal acidification. To be noted: synthetic tuberculosinols coupled to beads; reference (21); cited from earlier work.

Regarding `CC(C)=CCC/C(C)=C/CC/C(C)=C/CC/C(C)=C/COP(=O)(O)OP(=O)(O)O` [GGPP, geranylgeranyl pyrophosphate], the “product formation by Rv3378c from diterpene pyrophosphate substrate and adenosine” value in experiment [1] is “little or no product; also recorded: does not act on GGPP”.
In the case of `C/C(=C\CO)CC[C@@]1(C)[C@@H]2CCCC(C)(C)C2=CC[C@@H]1C` [tuberculosinols, tuberculosinol], the “effect on phagosomal acidification” value in the experiment with phagosomal acidification was “block phagosomal acidification”.
In the case of tuberculosinyl pyrophosphate [TbPP], the “product formation by Rv3378c from diterpene pyrophosphate substrate and adenosine” value in experiment [1] is “catalyzed the condensation of adenosine and TbPP to generate 1-TbAd”.

These data come from patent US10197560B2 (priority 2013, dated 2019).
